Assay results reported in patent US20050266509A1, “Interaction of NMDA receptor with protein tyrosine phosphatase” (AGY Therapeutics, Inc., priority 2003, published 2005).
“Also recorded” adds a separate entry of the source.

Columns and labels:
PTPB = PTPB (Homo sapiens, UniProt P23467); experiment: FRET phosphatase assay, PTPB; type: biochemical
Procedure: (§1) For the enzyme activity assay, 2.5 μl of compound, 12.5 μl of enzyme, and 10 μl of substrate (separated by air gaps) are added to columns 3 through 24 by the Biomek FX in a single dispense. After the dispense, the tips are washed with DMSO and water for re-use between each quadrant. Once the assay plates are set up, they are incubated at 27° C. for 45 minutes. Then 20 μl of detection buffer is added to stop the reaction and to allow the Europium antibody (Eu-Ab) and streptavidin-APC to bind to the substrate.
(§2) The plates are then placed in the plate reader, an Analyst HT. Excitation light at 360 nm is used to excite the Europium antibody with an emission at 620 nm. Fluorescence resonance energy transfer (FRET) from Eu-Ab to APC will only occur when they are in close proximity. Therefore, when an APC emission is observed at 665 nm the enzyme has been inhibited from removing the phosphate group from the substrate. The FRET assay is time-resolved (TR), where there is a delay between excitation light and collection of emission signals. This reduces the amount of stray light created by short-lived fluorescing molecules. The Analyst HT measures APC and Europium emission signals and calculates the ratio between the two intensities. Typical intensities for the Europium is ˜2000 and APC is ˜600.
(§3) The following compounds were tested by FRET against the listed phosphatases, and the IC50 were obtained. […]

PTPMEG [1] = biological target: T1, PTPMEG (Homo sapiens, UniProt P29074); experiment: TR-FRET phosphatase activity assay, PTPMEG; type: biochemical
T1 construct: Asp-Ser-6xHis (N); made in house; host or cells: E. coli BL21(DE3)
T1 sequence (P29074 655-911 limits assumed): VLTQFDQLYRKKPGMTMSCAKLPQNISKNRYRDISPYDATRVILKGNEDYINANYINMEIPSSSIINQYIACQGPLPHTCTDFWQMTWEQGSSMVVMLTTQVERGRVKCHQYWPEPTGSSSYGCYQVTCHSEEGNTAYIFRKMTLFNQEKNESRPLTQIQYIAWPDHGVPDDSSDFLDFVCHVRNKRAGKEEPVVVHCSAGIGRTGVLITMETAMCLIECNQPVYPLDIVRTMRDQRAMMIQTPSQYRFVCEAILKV
Procedure: Expression and Purification of PTPMEG The DNA sequence encoding the C-terminal 326 residues of PTPMEG (phosphatase domain) was subcloned into the pET-17b vector (Novagen) between the Ndel and Xhol restriction sites. An N-terminal tag consisting of Asp-Ser-6×His was incorporated at the beginning of the protein sequence. Protein expression was performed in BL21(DE3) cells at 37° C. with a 4 hour 0.5 mM IPTG induction. The cells were harvested by centrifugation and stored at −80° C. until needed for protein purification. Protein purification consisted of cell lysis by sonication, immobilized metal affinity chromatography (IMAC) on a Ni^2+-NTA column (Qiagen), followed by hydrophobic interaction chromatography (HIC) on a phenyl sepharose column (Amersham Pharmacia Biotech) and/or ion exchange chromatography (IEC) on a Q sepharose column (Amersham Pharmacia Biotech). The purified 38.3 kDa protein was buffer exchanged into 50 mM HEPES, pH 7.5 and stored at −80° C.
Phosphatase Buffer: 50 mm HEPES, pH 8; 1 mM DDT; 2 mM EDTA; 0.01% Brij solution; 10 mM MgCl2. […]
The plates are then placed in the plate reader, an Analyst HT. […] Fluorescence resonance energy transfer (FRET) from Eu-Ab to APC will only occur when they are in close proximity. […]

T Cell = biological target: T2, T Cell (Homo sapiens, UniProt P17706); experiment: FRET phosphatase assay, T Cell; type: biochemical
T2 sequence (P17706 1-415): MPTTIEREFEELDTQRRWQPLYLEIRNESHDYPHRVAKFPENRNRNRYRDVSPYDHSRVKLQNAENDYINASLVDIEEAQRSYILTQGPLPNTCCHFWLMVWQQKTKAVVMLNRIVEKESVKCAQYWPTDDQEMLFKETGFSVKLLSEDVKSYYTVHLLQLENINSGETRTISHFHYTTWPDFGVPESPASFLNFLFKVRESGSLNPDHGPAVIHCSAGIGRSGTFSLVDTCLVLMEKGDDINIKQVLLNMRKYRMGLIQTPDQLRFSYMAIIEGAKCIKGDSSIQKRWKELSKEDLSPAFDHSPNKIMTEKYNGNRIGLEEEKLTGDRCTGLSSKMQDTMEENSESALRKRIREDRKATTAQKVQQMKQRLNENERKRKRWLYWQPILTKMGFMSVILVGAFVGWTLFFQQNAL
Procedure: as §1, §2, §3

CD45 = biological target: T3, CD45 (Homo sapiens, UniProt P08575); experiment: FRET phosphatase assay, CD45; type: biochemical
T3 sequence (P08575 26-1306): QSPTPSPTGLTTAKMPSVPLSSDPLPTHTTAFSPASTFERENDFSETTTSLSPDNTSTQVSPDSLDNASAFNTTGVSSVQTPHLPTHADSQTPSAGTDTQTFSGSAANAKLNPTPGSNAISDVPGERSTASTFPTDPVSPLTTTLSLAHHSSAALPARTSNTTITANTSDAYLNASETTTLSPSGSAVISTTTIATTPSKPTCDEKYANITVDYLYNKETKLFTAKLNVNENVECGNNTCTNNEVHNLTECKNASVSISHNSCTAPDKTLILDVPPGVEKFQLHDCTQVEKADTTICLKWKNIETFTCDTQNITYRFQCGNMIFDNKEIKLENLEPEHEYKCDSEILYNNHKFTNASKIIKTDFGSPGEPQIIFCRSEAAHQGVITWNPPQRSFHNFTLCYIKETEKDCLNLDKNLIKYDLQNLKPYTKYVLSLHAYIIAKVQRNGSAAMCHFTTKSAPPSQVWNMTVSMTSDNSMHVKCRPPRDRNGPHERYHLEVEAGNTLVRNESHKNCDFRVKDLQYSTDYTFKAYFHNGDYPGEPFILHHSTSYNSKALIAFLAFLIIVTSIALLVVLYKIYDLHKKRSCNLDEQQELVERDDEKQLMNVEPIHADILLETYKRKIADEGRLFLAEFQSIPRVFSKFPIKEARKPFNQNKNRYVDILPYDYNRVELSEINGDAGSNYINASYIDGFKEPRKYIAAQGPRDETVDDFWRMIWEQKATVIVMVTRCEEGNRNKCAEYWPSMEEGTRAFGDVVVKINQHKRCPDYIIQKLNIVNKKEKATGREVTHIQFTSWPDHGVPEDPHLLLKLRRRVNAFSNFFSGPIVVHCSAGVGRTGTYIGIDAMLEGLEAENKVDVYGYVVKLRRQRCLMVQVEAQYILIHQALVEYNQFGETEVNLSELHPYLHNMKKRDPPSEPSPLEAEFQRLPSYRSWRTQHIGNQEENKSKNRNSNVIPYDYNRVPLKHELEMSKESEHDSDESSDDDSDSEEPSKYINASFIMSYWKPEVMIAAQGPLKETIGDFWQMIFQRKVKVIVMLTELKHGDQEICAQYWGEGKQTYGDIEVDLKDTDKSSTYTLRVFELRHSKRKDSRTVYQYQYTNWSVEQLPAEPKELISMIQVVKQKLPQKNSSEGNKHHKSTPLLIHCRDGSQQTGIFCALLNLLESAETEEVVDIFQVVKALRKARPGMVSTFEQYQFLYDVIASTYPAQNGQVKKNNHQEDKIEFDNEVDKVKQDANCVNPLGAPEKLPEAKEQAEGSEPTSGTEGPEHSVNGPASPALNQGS
Procedure: as §1, §2, §3

mice = experiment: Amphetamine-induced hyperactivity model (open field); conditions: 5 mg/kg SC, 60 min recording period
PTPMEG [2] = biological target: T4, PTPMEG (Homo sapiens, UniProt P29074); experiment: Western blot of NR2B and Src phosphorylation in NR1/NR2B stable cell line transfected with active Src and PTPMEG; type: cell-based; conditions: 48 h post transfection
T4 construct: expressed in transfected cells
T4 sequence (P29074 1-926): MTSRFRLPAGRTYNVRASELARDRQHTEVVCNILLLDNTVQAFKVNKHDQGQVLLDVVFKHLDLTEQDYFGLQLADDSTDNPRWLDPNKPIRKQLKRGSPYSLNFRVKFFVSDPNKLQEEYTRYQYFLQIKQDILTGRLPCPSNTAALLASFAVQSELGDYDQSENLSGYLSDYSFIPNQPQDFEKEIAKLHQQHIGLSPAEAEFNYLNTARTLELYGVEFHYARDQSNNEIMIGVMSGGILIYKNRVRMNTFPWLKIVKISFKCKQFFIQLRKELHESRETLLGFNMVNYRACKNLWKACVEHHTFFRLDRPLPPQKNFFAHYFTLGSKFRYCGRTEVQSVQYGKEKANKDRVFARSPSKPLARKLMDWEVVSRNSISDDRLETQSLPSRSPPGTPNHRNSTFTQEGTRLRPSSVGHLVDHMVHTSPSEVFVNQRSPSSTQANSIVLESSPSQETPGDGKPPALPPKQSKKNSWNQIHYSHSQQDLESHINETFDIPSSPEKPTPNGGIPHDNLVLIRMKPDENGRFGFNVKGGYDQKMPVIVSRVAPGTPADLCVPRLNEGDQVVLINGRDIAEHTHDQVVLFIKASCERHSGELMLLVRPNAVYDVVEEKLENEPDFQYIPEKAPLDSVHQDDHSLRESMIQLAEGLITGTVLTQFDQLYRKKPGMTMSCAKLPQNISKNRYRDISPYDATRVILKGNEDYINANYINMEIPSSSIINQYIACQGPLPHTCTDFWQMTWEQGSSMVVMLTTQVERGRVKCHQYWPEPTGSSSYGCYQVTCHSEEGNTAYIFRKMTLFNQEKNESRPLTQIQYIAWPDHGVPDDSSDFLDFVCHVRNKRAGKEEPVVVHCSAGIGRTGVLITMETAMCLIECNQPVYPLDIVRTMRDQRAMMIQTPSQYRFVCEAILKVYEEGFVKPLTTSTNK
Procedure: A stable cell line, expressing the NMDA receptor subunit NR1 together with NR2B was transiently transfected with constitutive active Src kinase and PTPMEG, wildtype and dominant negative CS mutant, respectively. Control experiments included dephostatin, a generic tyrosine phosphatase inhibitor. 48 h post transfection cells were lysed and subsequently analyzed by western blot. In presence of the active wildtype PTPMEG phosphatase, both the NR2B subunit as well as Src kinase were dephosphorylated, shown in FIG. 3. […] NR2B phosphorylation by Src kinase was detected by an NR2B phosphospecific antibody. Dephosphorylation of NR2B and Src kinase was reversed by addition of dephostatin, and unaffected in presence of the dominant negative form of PTPMEG (CS). (FIG. 5)

PTPMEG [3] = biological target: T4, PTPMEG; experiment: Western blot of Src/fyn Y418 phosphorylation in NR1/NR2B stable cell line transfected with active Src or fyn and PTPMEG; type: cell-based; conditions: 500 μM, 3 hours, 48 hrs post-transfection
Text: PTPMEG Dephosphorylates Protein Kinases Src and fyn. A stable cell line expressing the NR1 and NR2B subunits of the NMDA receptor was transiently transfected with constitutive active Src Srcor constitutive active fyn (fyn Y530F, where the tyrosine at position 530 is substituted by a phenylalanine) and PTPMEG, from a full length PTPMEG (amino-terminal myc-tag, c-terminal HA tag) expression construct in the pRK5 vector, with a CMV-driven promoter.
48 hrs post-transfection the cells were stimulated with 500 μM sodium orthovanadate, a […] for 3 hours. Cells were lysed and analyzed by western blot using a Src/fyn specific phosphoantibody (from Biosource) that recognizes the residue Y418 critical for activity for both Src and fyn. In presence of PTPMEG (identified with a c-myc antibody from Upstate) there is a dephosphorylation of Src and fyn at position Y418. This dephosphorylation is reversed by sodium orthovanadate. A pan Src antibody that recognizes total Src and fyn is used as a loading control.

PTPB, sequence (P23467 1643-1997 limits assumed): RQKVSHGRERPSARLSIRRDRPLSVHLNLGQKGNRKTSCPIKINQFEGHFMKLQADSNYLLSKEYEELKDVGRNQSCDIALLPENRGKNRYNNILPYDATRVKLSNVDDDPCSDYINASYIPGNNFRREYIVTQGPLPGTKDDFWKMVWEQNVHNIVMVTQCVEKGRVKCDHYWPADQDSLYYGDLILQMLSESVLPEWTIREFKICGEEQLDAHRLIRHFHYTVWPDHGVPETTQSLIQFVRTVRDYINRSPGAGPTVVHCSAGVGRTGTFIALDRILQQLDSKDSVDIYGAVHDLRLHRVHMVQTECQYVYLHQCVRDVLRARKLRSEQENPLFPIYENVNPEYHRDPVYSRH

## O=C(O)CN1C(=O)c2cccc3cccc1c23 [AGY- 0041763]
PTPB
  IC50: > 500 µM
PTPMEG [1]
  IC50: 0.56 µM
T Cell
  IC50: > 500 µM
CD45
  IC50: > 500 µM

## C[C@H](N)Cc1ccccc1 [d-amphetamine]
mice
  Locomotion (total distance in the open field): significantly increases

## CN(N=O)c1cc(O)ccc1O [dephostatin]
PTPMEG [2]; NR2B phosphospecific antibody western blot
  Dephosphorylation of NR2B by PTPMEG: reversed
PTPMEG [2]; anti PY418 western blot
  Dephosphorylation of Src kinase (position 418) by PTPMEG: reversed; also recorded: restores phosphorylation

## [Na+].[Na+].[Na+].[O]=[V]([O-])([O-])[O-] [sodium orthovanadate]
PTPMEG [3]
  Dephosphorylation of Src and fyn at position Y418 by PTPMEG: reversed
